The target of the assay is T1, human PPARα-receptor (Homo sapiens, UniProt Q07869).
T1 construct: expressed in transfected cells; host or cells: CHO (chinese hamster ovary) cells, stably transfected
T1 sequence (Q07869 167-468): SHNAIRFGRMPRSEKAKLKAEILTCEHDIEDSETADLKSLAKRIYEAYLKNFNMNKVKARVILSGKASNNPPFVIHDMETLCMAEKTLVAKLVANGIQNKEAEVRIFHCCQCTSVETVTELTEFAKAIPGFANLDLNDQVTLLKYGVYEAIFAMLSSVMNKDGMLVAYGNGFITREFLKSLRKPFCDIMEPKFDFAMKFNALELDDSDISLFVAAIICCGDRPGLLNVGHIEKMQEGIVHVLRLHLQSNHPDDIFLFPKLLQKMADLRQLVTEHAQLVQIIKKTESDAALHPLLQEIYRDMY
Kind of assay: Cellular transactivation assay (GAL4-PPARα chimera, luciferase reporter, CHO cells). The format is cell-based. The note with it: CHO cells stably expressing GAL4-PPARα chimera and luciferase reporter; stimulation time 6 h. The source says:
A cellular assay is used to identify activators of the peroxisome proliferator-activated receptor alpha (PPAR-alpha).
Since mammalian cells contain different endogenous nuclear receptors which can complicate unambiguous interpretation of the results, an established chimera system is used, in which the ligand binding domain of the human PPARα-receptor is fused to the DNA binding domain of the yeast transcription factors GAL4. The GAL4-PPARα chimera thus formed is co-transfected and expressed stably in CHO cells with a reporter construct.
The GAL4-PPARα expression construct contains the ligand binding domain of PPARα (amino acids 167-468), which is PCR-amplified and cloned into the vector pcDNA3.1. This vector already contains the GAL4 DNA binding domain (amino acids 1-147) of the vector pFC2-dbd (Stratagene). The reporter construct, which contains five copies of the GAL4 binding site upstream of a thymidine kinase promoter, leads to the expression of firefly luciferase (Photinus pyralis) after activation and binding of GAL4-PPARα.
The day before the test, CHO (chinese hamster ovary) cells which stably express the above-described GAL4-PPARα chimera and luciferase reporter gene construct are plated out in 96-hole microtiter plates with 1×10^3 cells in medium (Optimem, GIBCO), 2% activated carbon-purified fetal calf serum (Hyclone), 1.35 mM sodium pyruvate (GIBCO), 0.2% sodium bicarbonate (GIBCO), and kept in a cell incubator (air humidity 96%, 5% v/v CO2, 37° C.). On the day of the test, the substances to be tested are taken up in abovementioned medium, but without addition of calf serum, and added to the cells. After a stimulation time of 6 h, the luciferase activity is measured with the aid of a video camera. The relative light units measured give a sigmoid stimulation curve as a function of the substance concentration. The EC50 values are calculated with the aid of the computer program GraphPad PRISM (Version 3.02).

Take `N#Cc1ccc(Cl)c(Oc2nc(-c3cc(F)cc(F)c3)ccc2C(=O)O)c1` [Example 17, 2-(2-Chloro-5-cyanophenoxy)-6-(3,5-difluorophenyl)nicotinic acid]: a half-maximal effect (EC50) was put at 69 nM. As to `Cc1cc(-c2ccc(C(=O)O)c(Oc3ccccc3Cl)n2)ccc1F` [Example 4, 2-(2-Chlorophenoxy)-6-(4-fluoro-3-methylphenyl)nicotinic acid], it took 157 nM to reach a half-maximal effect (EC50). Next, `O=C(O)c1cc(F)c(-c2ccc(C(F)(F)F)cc2)nc1Oc1ccccc1Cl` [Example 38, 2-(2-Chlorophenoxy)-5-fluoro-6-(4-trifluoromethylphenyl)nicotinic acid]: 360 nM; `O=C(O)c1ccc(-c2ccc(Cl)nc2)nc1Oc1ccccc1Cl` [Example 16, 6′-Chloro-6-(2-chlorophenoxy)-2,3′-bipyridine-5-carboxylic acid]: 870 nM. As for `COc1cccc(-c2cc(C(F)(F)F)c(C(=O)O)c(Oc3ccccc3Cl)n2)c1F` [Example 42, 2-(2-Chlorophenoxy)-6-(2-fluoro-3-methoxyphenyl)-4-trifluoromethylnicotinic acid], the EC50 (usually the midpoint of the concentration-response curve) came out at 541 nM.

`Cc1ccc(-c2nc(Oc3ccccc3Cl)c(C(=O)O)cc2F)cc1F` [Example 36, 2-(2-Chlorophenoxy)-5-fluoro-6-(3-fluoro-4-methylphenyl)nicotinic acid]: the EC50 came to 34 nM. The same measure for `Cc1ccc(-c2cc(C(F)(F)F)c(C(=O)O)c(Oc3ccccc3Cl)n2)cc1F` [Example 11, 2-(2-Chlorophenoxy)-6-(3-fluoro-4-methylphenyl)-4-(trifluoromethyl)nicotinic acid]: 14 nM. As for `Cc1ccc(-c2ccc(C(=O)O)c(Oc3ccccc3Cl)n2)cc1F` [Example 5, 2-(2-Chlorophenoxy)-6-(3-fluoro-4-methylphenyl)nicotinic acid], the EC50 worked out at 33 nM. The same measure for `O=C(O)c1ccc(-c2cccc(F)c2F)nc1Oc1ccccc1OC(F)(F)F` [Example 26, 2-(2-Trifluoromethoxyphenoxy)-6-(2,3-difluorophenyl)nicotinic acid]: 76 nM.
